Data from US20150141381A1, “TETRACYCLINE COMPOUNDS HAVING TARGET THERAPEUTIC ACTIVITIES” (Paratek Pharmaceuticals, Inc., priority 2001, published 2015).
Like-named read-outs stand apart in the source and are kept apart here.

Legend:
[1] = test system: S. aureus RN450; experiment: In Vitro Anti-Bacterial Activity Assay (MIC), gram positive; type: cell-based; conditions: for MIC: Staphylococcus aureus, RN450, 18 h
[2] = test system: E. coli mL308 225; experiment: In Vitro Anti-Bacterial Activity Assay (MIC), gram negative; type: cell-based; conditions: for MIC: Escherichia coli, ML308225, 18 h
[3] = gram positive bacteria, read-out: Antibiotic Activity Gram + (MIC)
[4] = gram negative bacteria, read-out: Antibiotic Activity Gram − (MIC)
[5] = read-out: Antibiotic Activity Gram − (MIC)
[6] = MIC class, Table 3, read-out: Antibiotic Activity Gram +
[7] = MIC class, Table 3, read-out: Antibiotic Activity Gram −
[8] = MIC class, Table 3 (Continued), read-out: Gram+ activity
[9] = MIC class, Table 3 (Continued), read-out: Gram− activity

Structure (SMILES)	MIC [1, 3]	MIC [2, 4]	MIC [1, 6]	MIC [2, 7]	also measured
CN(C)[C@@H]1C(O)=C(C(N)=O)C(=O)[C@@]2(O)C(O)=C3C(=O)c4c(O)c(S(=O)(=O)O)cc(Cl)c4C=C3C[C@@H]12	> 4 µg/mL	> 4 µg/mL	–	–	–
CC(CF)NCc1ccc(O)c2c1C[C@H]1C[C@H]3[C@H](N(C)C)C(O)=C(C(N)=O)C(=O)[C@@]3(O)C(O)=C1C2=O (stereo partly shown)	< 4 µg/mL	–	–	–	MIC [2, 5]: > 4 µg/mL
CCCCCc1ccc(O)c2c1C[C@H]1C[C@H]3[C@H](N(C)C)C(O)=C(C(N)=O)C(=O)[C@@]3(O)C(O)=C1C2=O [DG]	–	–	< 4 µg/mL	> 4 µg/mL	–
COc1ccc(CCc2ccc(O)c3c2C[C@H]2C[C@H]4[C@H](N(C)C)C(O)=C(C(N)=O)C(=O)[C@@]4(O)C(O)=C2C3=O)cc1	–	–	–	–	MIC [1, 8]: < 4 µg/mL; MIC [2, 9]: < 4 µg/mL
CN(C)[C@@H]1C(O)=C(C(N)=O)C(=O)[C@@]2(O)C(O)=C3C(=O)c4c(O)ccc(-c5ccc(CN6CCCC6)o5)c4C[C@H]3C[C@@H]12 [GY]	–	–	< 4 µg/mL	< 4 µg/mL	–
CC(=O)c1cc(CNCC(C)(C)C)c(O)c2c1C[C@H]1C[C@H]3[C@H](N(C)C)C(O)=C(C(N)=O)C(=O)[C@@]3(O)C(O)=C1C2=O	< 4 µg/mL	> 4 µg/mL	–	–	–
Cc1cnc(N)n1Cc1cc(N(C)C)c2c(c1O)C(=O)C1=C(O)[C@]3(O)C(=O)C(C(N)=O)=C(O)[C@@H](N(C)C)[C@@H]3C[C@@H]1C2 [drawing 3712]	–	–	–	–	Antibiotic Activity Gram + (MIC) ([1]; gram positive bacteria): * (compounds with an MIC of greater than 4 μg/ml are indicated with *); Antibiotic Activity Gram − (MIC) ([2]; gram negative bacteria): * (compounds with an MIC of greater than 4 μg/ml are indicated with *)
Cc1ccc(-c2ccc(O)c3c2C[C@H]2C[C@H]4[C@H](N(C)C)C(O)=C(C(N)=O)C(=O)[C@@]4(O)C(O)=C2C3=O)cn1	< 4 µg/mL	< 4 µg/mL	–	–	–
CC1CN(Cc2cc(N(C)C)c3c(c2O)C(=O)C2=C(O)[C@]4(O)C(=O)C(C(N)=O)=C(O)[C@@H](N(C)C)[C@@H]4C[C@@H]2C3)CC(C)O1 (stereo partly shown)	< 4 µg/mL	< 4 µg/mL	–	–	–
CN(C)[C@@H]1C(O)=C(C(N)=O)C(=O)[C@@]2(O)C(O)=C3C(=O)c4c(O)ccc(-c5cncnc5)c4C[C@H]3C[C@@H]12 [NL]	–	–	< 4 µg/mL	< 4 µg/mL	–
CN(C)c1ccc(O)c2c1C[C@H]1C[C@H]3CC(O)=C(C(N)=O)C(=O)[C@@]3(O)C(O)=C1C2=O	< 4 µg/mL	< 4 µg/mL	–	–	–
CN(C)[C@@H]1C(O)=C(C(N)=O)C(=O)[C@@]2(O)C(O)=C3C(=O)c4c(O)ccc(CN(CC5CC5)CC5CC5)c4C[C@H]3C[C@@H]12 [KC]	–	–	< 4 µg/mL	< 4 µg/mL	–
C[C@H]1c2cccc(O)c2C(=O)C2=C(O)[C@]3(O)C(=O)C(C(N)=O)=C(O)[C@@H](N(C)C)[C@@H]3[C@@H](O)[C@@H]21 [drawing 3668]	–	–	–	–	Antibiotic Activity Gram + (MIC) ([1]; gram positive bacteria): ** (compounds with MIC less than or equal to 4 μg/ml are indicated with **); Antibiotic Activity Gram − (MIC) ([2]; gram negative bacteria): * (compounds with an MIC of greater than 4 μg/ml are indicated with *)
CN(C)c1cc(NC(=O)Nc2ccc(OC(F)(F)F)cc2)c(O)c2c1C[C@H]1C[C@H]3[C@H](N(C)C)C(O)=C(C(N)=O)C(=O)[C@@]3(O)C(O)=C1C2=O [CG]	–	–	< 4 µg/mL	> 4 µg/mL	–
CN(C)c1cc(CN2CCC(C(F)F)CC2)c(O)c2c1C[C@H]1C[C@H]3[C@H](N(C)C)C(O)=C(C(N)=O)C(=O)[C@@]3(O)C(O)=C1C2=O	< 4 µg/mL	< 4 µg/mL	–	–	–
CC(C)COC(=O)Nc1cc(N(C)C)c2c(c1O)C(=O)C1=C(O)[C@]3(O)C(=O)C(C(N)=O)=C(O)[C@@H](N(C)C)[C@@H]3C[C@@H]1C2 [DU]	–	–	< 4 µg/mL	> 4 µg/mL	–
CN(C)c1cc(NC(=O)Nc2cccc(F)c2)c(O)c2c1C[C@H]1C[C@H]3[C@H](N(C)C)C(O)=C(C(N)=O)C(=O)[C@@]3(O)C(O)=C1C2=O [DD]	–	–	< 4 µg/mL	> 4 µg/mL	–
COc1ccc(CNc2cc(N(C)C)c3c(c2O)C(=O)C2=C(O)[C@]4(O)C(=O)C(C(N)=O)=C(O)[C@@H](N(C)C)[C@@H]4C[C@@H]2C3)cc1O	> 4 µg/mL	> 4 µg/mL	–	–	–
CCCCCC(=O)c1ccc(O)c2c1C[C@H]1C[C@H]3[C@H](N(C)C)C(O)=C(C(N)=O)C(=O)[C@@]3(O)C(O)=C1C2=O	< 4 µg/mL	< 4 µg/mL	–	–	–
COc1ccc(C#Cc2ccc(O)c3c2C[C@H]2C[C@H]4[C@H](N(C)C)C(O)=C(C(N)=O)C(=O)[C@@]4(O)C(O)=C2C3=O)cc1	–	–	–	–	MIC [1, 8]: < 4 µg/mL; MIC [2, 9]: < 4 µg/mL
CONCc1cc(CNCC(C)(C)C)c(O)c2c1C[C@H]1C[C@H]3[C@H](N(C)C)C(O)=C(C(N)=O)C(=O)[C@@]3(O)C(O)=C1C2=O	< 4 µg/mL	> 4 µg/mL	–	–	–
CC(CF)Nc1ccc(-c2ccc(O)c3c2C[C@H]2C[C@H]4[C@H](N(C)C)C(O)=C(C(N)=O)C(=O)[C@@]4(O)C(O)=C2C3=O)cc1 (stereo partly shown)	< 4 µg/mL	> 4 µg/mL	–	–	–

Structure (SMILES)	MIC [1, 3]	MIC [2, 4]	MIC [1, 6]	MIC [2, 7]	also measured
CN(C)[C@@H]1C(O)=C(C(N)=O)C(=O)[C@@]2(O)C(O)=C3C(=O)c4c(O)ccc(-c5ccc6c(c5)OCO6)c4C[C@H]3C[C@@H]12 [drawing 3479]	< 4 µg/mL	< 4 µg/mL	–	–	–
CCCC(=O)C[C@@H]1[C@H]2[C@H](N(C)C)C(O)=C(C(N)=O)C(=O)[C@@]2(O)C(O)=C2C(=O)c3c(O)cccc3C(C)[C@H]21 (stereo partly shown)	–	–	–	–	MIC [1, 8]: < 4 µg/mL; MIC [2, 9]: < 4 µg/mL
CN(C)[C@@H]1C(O)=C(C(N)=O)C(=O)[C@@]2(O)C(O)=C3C(=O)c4c(O)ccc(CCCNS(C)(=O)=O)c4C[C@H]3C[C@@H]12 [CQ]	–	–	< 4 µg/mL	> 4 µg/mL	–
CCN(CC)Cc1ccc(OC)c(-c2ccc(O)c3c2C[C@H]2C[C@H]4C(N(C)C)C(O)=C(C(N)=O)C(=O)[C@@]4(O)C(O)=C2C3=O)c1 (stereo partly shown) [EC]	–	–	< 4 µg/mL	< 4 µg/mL	–
CC1OC(=O)NC1COC(=O)N(Cc1cc(N(C)C)c2c(c1O)C(=O)C1=C(O)[C@]3(O)C(=O)C(C(N)=O)=C(O)[C@@H](N(C)C)[C@@H]3C[C@@H]1C2)CC(C)(C)C (stereo partly shown)	< 4 µg/mL	> 4 µg/mL	–	–	–
CN(C)CCN(C)Cc1ccc(-c2cc(N(C)C)c3c(c2O)C(=O)C2=C(O)[C@]4(O)C(=O)C(C(N)=O)=C(O)[C@@H](N(C)C)[C@@H]4C[C@@H]2C3)[nH]1	> 4 µg/mL	> 4 µg/mL	–	–	–
CC(C)OC(=O)c1cccc(-c2ccc(O)c3c2C[C@H]2C[C@H]4[C@H](N(C)C)C(O)=C(C(N)=O)C(=O)[C@@]4(O)C(O)=C2C3=O)c1	< 4 µg/mL	< 4 µg/mL	–	–	–
CN(C)[C@@H]1C(O)=C(C(N)=O)C(=O)[C@@]2(O)C(O)=C3C(=O)c4c(O)ccc(-c5ccc(F)cc5F)c4C[C@H]3C[C@@H]12 [AB]	–	–	< 4 µg/mL	> 4 µg/mL	–
C[C@H]1c2ccc(C(C)(C)C)c(O)c2C(=O)C2=C(O)[C@]3(O)C(=O)C(C(N)=O)=C(O)[C@@H](N(C)C)[C@@H]3[C@@H](O)[C@@H]21 [O]	–	–	< 4 µg/mL	> 4 µg/mL	–
CCCOc1cccc2c1C(=O)C1=C(O)[C@]3(O)C(=O)C(C(N)=O)=C(O)[C@@H](N(C)C)[C@@H]3C[C@@H]1C2 [drawing 3586]	–	–	–	–	Antibiotic Activity Gram + (MIC) ([1]; gram positive bacteria): * (compounds with an MIC of greater than 4 μg/ml are indicated with *); Antibiotic Activity Gram − (MIC) ([2]; gram negative bacteria): * (compounds with an MIC of greater than 4 μg/ml are indicated with *)
C#Cc1cc(CNC(=O)N2CCOCC2)c2c(c1O)C(=O)C1=C(O)[C@]3(O)C(=O)C(C(N)=O)=C(O)[C@@H](N(C)C)[C@@H]3C[C@@H]1C2	> 4 µg/mL	> 4 µg/mL	–	–	–
CN(C)c1ccc(O)c2c1C[C@H]1C[C@H]3[C@H](N(C)C)C(O)=C(C(=O)NCNC(=O)CCl)C(=O)[C@@]3(O)C(O)=C1C2=O [DN]	–	–	< 4 µg/mL	> 4 µg/mL	–
CN(C)c1cc(CNC(CF)CF)c(O)c2c1C[C@H]1C[C@H]3[C@H](N(C)C)C(O)=C(C(N)=O)C(=O)[C@@]3(O)C(O)=C1C2=O	< 4 µg/mL	–	–	–	MIC [2, 5]: > 4 µg/mL
Cc1noc(C)c1S(=O)(=O)NCc1ccc(O)c2c1C[C@H]1C[C@H]3[C@H](N(C)C)C(O)=C(C(N)=O)C(=O)[C@@]3(O)C(O)=C1C2=O [IG]	–	–	< 4 µg/mL	> 4 µg/mL	–
COc1ccc(CNCCc2ccccc2)cc1-c1ccc(O)c2c1C[C@H]1C[C@H]3[C@H](N(C)C)C(O)=C(C(N)=O)C(=O)[C@@]3(O)C(O)=C1C2=O	< 4 µg/mL	< 4 µg/mL	–	–	–
CCOC(=O)CNC(=O)c1cccc(-c2ccc(O)c3c2C[C@H]2C[C@H]4[C@H](N(C)C)C(O)=C(C(N)=O)C(=O)[C@@]4(O)C(O)=C2C3=O)c1 [GS]	–	–	< 4 µg/mL	> 4 µg/mL	–
CC(=O)NCc1ccc(O)c2c1C[C@H]1C[C@H]3[C@H](N(C)C)C(O)=C(C(N)=O)C(=O)[C@@]3(O)C(O)=C1C2=O	< 4 µg/mL	> 4 µg/mL	–	–	–
CN(C)[C@@H]1C(O)=C(C(N)=O)C(=O)[C@@]2(O)C(O)=C3C(=O)c4c(O)ccc(-c5ccncc5F)c4C[C@H]3C[C@@H]12	< 4 µg/mL	< 4 µg/mL	–	–	–
CN(C)[C@@H]1C(O)=C(C(N)=O)C(=O)[C@@]2(O)C(O)=C3C(=O)c4c(ccc(NCCNC(C)(C)C)c4O)C[C@H]3C[C@@H]12	< 4 µg/mL	< 4 µg/mL	–	–	–
CN(C)c1cc(CNC(N)=O)c(O)c2c1C[C@H]1C[C@H]3[C@H](N(C)C)C(O)=C(C(N)=O)C(=O)[C@@]3(O)C(O)=C1C2=O	> 4 µg/mL	> 4 µg/mL	–	–	–
CCCC#Cc1ccc(O)c2c1C[C@H]1C[C@H]3[C@H](N(C)C)C(O)=C(C(N)=O)C(=O)[C@@]3(O)C(O)=C1C2=O [DK]	–	–	> 4 µg/mL	> 4 µg/mL	–
CCCC/C(Cl)=C/c1ccc(O)c2c1C[C@H]1C[C@H]3[C@H](N(C)C)C(O)=C(C(N)=O)C(=O)[C@@]3(O)C(O)=C1C2=O	< 4 µg/mL	< 4 µg/mL	–	–	–
